For assay [1], the system named is T1, rPlP5βR1 (PlP5βR1, PlP5βR).
T1 construct: gene P5βR1; full-length CDS 1170 bp, 389 aa; pDEST17, N-terminal 6xHis tag, E. coli SoluBL21 (mutants BL21(DE3)), Ni-NTA; printed WKF numbers of the two species may be swapped; wild type has L156 and L346 (abstract misprints A156, F346)
As to the kind of experiment: NADPH oxidation at […] nm, Michaelis-Menten. Format: biochemical, Plantago lanceolata. Conditions: 0.2 mM NADPH, phosphate buffer pH 8.0, 40 °C; SD < 25%.

For assay [2], the system named is T2, rPmdP5βR1 (PmdP5βR1, PmdP5βR).
T2 construct: gene P5βR1; full-length CDS 1170 bp, 389 aa; pDEST17, N-terminal 6xHis tag, E. coli SoluBL21 (mutants BL21(DE3)), Ni-NTA; printed WKF numbers of the two species may be swapped; wild type has F156 and A346
The assay is described as follows: NADPH oxidation at […] nm, Michaelis-Menten. To be noted: 0.2 mM NADPH, phosphate buffer pH 8.0, 40 °C, SD < 25%. Format: biochemical, Plantago media.

Assay [3] concerns T1, rPlP5βR1 (PlP5βR1, PlP5βR). As to the kind of experiment: NADPH oxidation at […] nm, Michaelis-Menten. In kind it is biochemical, Plantago lanceolata. To be noted: 0.2 mM NADPH, phosphate buffer pH 8.0, 40 °C, SD < 25%, read-out: rPlP5βR1 / L156F.
The subject of assay [4] is T2, rPmdP5βR1 (PmdP5βR1, PmdP5βR). The assay is described as follows: NADPH oxidation at […] nm, Michaelis-Menten. In kind it is biochemical, Plantago media. Conditions: 0.2 mM NADPH, phosphate buffer pH 8.0, 40 °C, SD < 25%, read-out: rPmdP5βR1 / DMT.
The test system of assay [5] is T1, rPlP5βR1 (PlP5βR1, PlP5βR). As to the kind of experiment: NADPH oxidation at […] nm, Michaelis-Menten. Format: biochemical, Plantago lanceolata. To be noted: 0.2 mM NADPH, phosphate buffer pH 8.0, 40 °C, SD < 25%, read-out: rPlP5βR1 / DMT.
For assay [6], the system named is T3, rPlP5βR1 (PlP5βR1, PlP5βR).
T3 construct: gene P5βR1
To be noted: read-out: rPlP5βR1 / L346A; 0.2 mM NADPH, phosphate buffer pH 8.0, 40 °C, DMSO added at 0.4-0.6 mM progesterone; SD < 25%.

The subject of assay [7] is T4, rPmdP5βR1 (PmdP5βR1, PmdP5βR).
T4 construct: gene P5βR1
Conditions: read-out: rPmdP5βR1 / F156L; 0.2 mM NADPH, phosphate buffer pH 8.0, 40 °C, DMSO added at 0.4-0.6 mM progesterone; SD < 25%.

Assay [8] has the same test system. To be noted: read-out: rPmdP5βR1 / A346L; 0.2 mM NADPH, phosphate buffer pH 8.0, 40 °C, DMSO added at 0.4-0.6 mM progesterone; SD < 25%.
Setting [9] is: DMSO added at 0.4-0.6 mM progesterone.

Molecules are shown by their SMILES. Like-named read-outs stand apart in the source and are kept apart here.

With `O=C1C=CCCC1` [2-cyclohexen-1-one], the results for the Km in assay [1], in assay [2] and in assay [3] were 66 µM, 46 µM and 16 µM, respectively.

For the molecule `C/C(C=O)=C\CC/C(C)=C/C=O` [8-oxogeranial], the Km in assay [1] was determined as 100 µM; in assay [2] it was 19 µM; in assay [4], 7 µM; in assay [5] it was 10 µM.

In the case of `C=CC(C)=O` [methyl vinyl ketone], the values for the Km in assay [1], in assay [2] and in assay [5] were 100 µM, 33 µM and 216 µM, respectively.

As for `CC(=O)[C@H]1CC[C@H]2[C@@H]3CCC4=CC(=O)CC[C@]4(C)[C@H]3CC[C@]12C` [progesterone], the Km in assay [2] (setting [9]) is 67 µM; in assay [3] (setting [9]), 451 µM; in assay [4] (setting [9]), 587 µM; in assay [5] (setting [9]) it was 44 µM; in assay [6] it was 170 µM; in assay [7], 128 µM. Also, the Km in assay [8] came to 218 µM.

These data come from PMC11643720, “Addressing the Evolution of Cardenolide Formation in Iridoid-Synthesizing Plants: Site-Directed Mutagenesis of PRISEs (Progesterone-5β-Reductase/Iridoid Synthase-like Enzymes) of Plantago Species” (Molecules, 2024).
